Test results as given in patent US20140088192A1, “SUBCUTANEOUSLY INFUSIBLE LEVODOPA PRODRUG COMPOSITIONS AND METHODS OF INFUSION” (SynAgile Corporation, priority 2010, published 2014).

Columns and labels:
[1] = Precipitation of LD from / clarity of LDEE solutions on holding; settings: for appearance of infused solution after storage: 2.3 M
Method: 150 mg of LDEE was dissolved in 3 mL of physiological saline (0.90% weight/volume of NaCl/water) at about 23° C., then at about 37° C. an additional amount of 22 mg of LDEE was added for a total LDEE concentration of about 57.3 mg/mL or about 0.25M.
At the ambient temperature of about 23° C., 226 mg of LDEE was dissolved in 1 mL of 1 M HCl. To the formed aqueous LDEE.HCl solution an additional amount of about 184 mg LDEE was added, followed by about 0.1 mL deionized water.
At the ambient temperature of about 23° C., about 113 mg of LDEE was dissolved in 1 mL of 1 M HCl. To the formed aqueous LDEE.HCl solution an additional amount of about 87 mg LDEE was added, followed by about 0.1 mL distilled water.
At the ambient temperature of about 23° C., about 226 mg of LDEE was dissolved in 1 mL of 1 M acetic acid. To the formed aqueous LDEE acetate salt solution an additional amount of about 168 mg LDEE was added. […] The pH of the resulting suspension was about 7.01 at about 26.4° C.
1.7 g of LDEE (7.5 millimoles) was dissolved in 1.405 mL of aqueous 5M HCl, then enough trisodium citrate was added to increase the pH to 5.5.
After flushing with nitrogen, the solution was kept for 7 days at 23±2° C. in a vial sealed with a grey elastomeric, substantially oxygen impermeable septum.

[2] = pH change of LDEE.HCl solutions on holding; type: physicochemical; settings: for pH of about 0.48M LDEE•HCl Solution / pH of about 0.95M LDEE•HCl Solution: 40° C.; for pH: about 2.7 M
Method: An about 2.6 M LDEE.HCl pH 2.1 aqueous solution was prepared by dissolving 1.506 g LDEE in 1.3 mL of aqueous 5M HCl and adjusting the pH by adding 0.24 μL of 1 M HCl. […] After 24 hours, the pH was 2.0.
To determine whether hydrolysis of subcutaneously infusible solutions of 0.95 M and 0.48 M LDEE.HCl concentrations excessively lowers their pH or drives their LD concentration beyond the saturation point where LD could precipitate, their starting pH of less <3 adjusted by adding an about 1.5 M trisodium citrate solution, were kept at 40° C. for 24 hrs.

[3] = Estimated / projected shelf life and operational life (time to LD saturation); settings: for storage time without LD precipitation: 2.5±0.5 M aqueous
Source text: To minimize hydrolysis and LD precipitation, the LDE salt can be stored in its dry solid form, and dissolved in water or in an aqueous solution prior to use. Alternatively and preferably, the LDE salt can be dissolved, and stored as an aqueous solution at a pH and at a temperature where the rate of hydrolysis is slow. […] The operational life, meaning the life of the infused solution, is similarly pH dependent. The pH of a subcutaneously infused solution can be generally greater than about 4.0. […] To extend the shelf life, the solution may be optionally stored at a temperature below about 25° C., for example it may be refrigerated at about 5±3° C.
After flushing with nitrogen, the solution was kept for 7 days at 23±2° C. in a vial sealed with a grey elastomeric, substantially oxygen impermeable septum. […] An operational life of 4 days suffices for infusion.
After flushing with nitrogen, the solution was kept in a vial sealed with a grey, elastomeric oxygen impermeable septum.
After flushing with nitrogen, the solution was kept in a vial sealed with a grey elastomeric, oxygen impermeable septum.

## CCOC(=O)[C@@H](N)Cc1ccc(O)c(O)c1.Cl [LDEE.HCl, LDEE Hydrochloride]
[1]; citrate pH 4.5, 2.5 days at room temperature and 7 weeks in a refrigerator
  appearance of infused solution after storage: colorless and clear
[1]; citrate pH 4.5, about 3 days at room temperature and about 3 months in a refrigerator
  appearance of infused solution after storage: colorless and clear
[1]; about 0.7 M LDEE + LDEE.HCl, pH about 6.87, 37° C., 3 hours
  precipitation of LD: no precipitation
[1]; about 0.7 M LDEE + LDEE.HCl, pH about 6.87, 37° C., 16 hours
  precipitation of LD: extensive precipitation of LD
[1]; about 1.3 M LDEE + LDEE.HCl, pH about 6.75, 37° C., 3 hours
  precipitation of LD: no precipitation
[1]; about 1.3 M LDEE + LDEE.HCl, pH about 6.75, 37° C., 16 hours
  precipitation of LD: extensive precipitation of LD
[2]; 0 h, starting pH 4.19
  pH of about 0.48M LDEE•HCl Solution: 4.19
[2]; 0 h, starting pH 4.2
  pH of about 0.95M LDEE•HCl Solution: 4.2
[2]; 0 h, starting pH 4.4
  pH of about 0.95M LDEE•HCl Solution: 4.4
[2]; 0 h, starting pH 4.45
  pH of about 0.48M LDEE•HCl Solution: 4.45
[2]; 0 h, starting pH 4.59
  pH of about 0.48M LDEE•HCl Solution: 4.59
[2]; 0 h, starting pH 4.6
  pH of about 0.95M LDEE•HCl Solution: 4.6
[2]; 0 h, starting pH 4.78
  pH of about 0.48M LDEE•HCl Solution: 4.78
[2]; 0 h, starting pH 4.82
  pH of about 0.95M LDEE•HCl Solution: 4.82
[2]; 0 h, starting pH 5.01
  pH of about 0.48M LDEE•HCl Solution: 5.01
  pH of about 0.95M LDEE•HCl Solution: 5.01
[2]; 0 h, starting pH 5.3
  pH of about 0.95M LDEE•HCl Solution: 5.3
[2]; 0 h, starting pH 5.31
  pH of about 0.48M LDEE•HCl Solution: 5.31
[2]; 0 h, starting pH 5.6
  pH of about 0.95M LDEE•HCl Solution: 5.6
[2]; 0 h, starting pH 5.61
  pH of about 0.48M LDEE•HCl Solution: 5.61
[2]; 2 h, starting pH 4.19
  pH of about 0.48M LDEE•HCl Solution: 4.43
[2]; 2 h, starting pH 4.2
  pH of about 0.95M LDEE•HCl Solution: 4.19
[2]; 2 h, starting pH 4.4
  pH of about 0.95M LDEE•HCl Solution: 4.38
[2]; 2 h, starting pH 4.45
  pH of about 0.48M LDEE•HCl Solution: 4.58
[2]; 2 h, starting pH 4.59
  pH of about 0.48M LDEE•HCl Solution: 4.68
[2]; 2 h, starting pH 4.6
  pH of about 0.95M LDEE•HCl Solution: 4.61
[2]; 2 h, starting pH 4.78
  pH of about 0.48M LDEE•HCl Solution: 4.85
[2]; 2 h, starting pH 4.82
  pH of about 0.95M LDEE•HCl Solution: 4.74
[2]; 2 h, starting pH 5.01
  pH of about 0.48M LDEE•HCl Solution: 5.01
  pH of about 0.95M LDEE•HCl Solution: 5.01
[2]; 2 h, starting pH 5.3
  pH of about 0.95M LDEE•HCl Solution: 5.34
[2]; 2 h, starting pH 5.31
  pH of about 0.48M LDEE•HCl Solution: 5.42
[2]; 2 h, starting pH 5.6
  pH of about 0.95M LDEE•HCl Solution: 5.68
[2]; 2 h, starting pH 5.61
  pH of about 0.48M LDEE•HCl Solution: 5.65
[2]; 6 h, starting pH 4.19
  pH of about 0.48M LDEE•HCl Solution: 4.34
[2]; 6 h, starting pH 4.2
  pH of about 0.95M LDEE•HCl Solution: 4.02
[2]; 6 h, starting pH 4.4
  pH of about 0.95M LDEE•HCl Solution: 4.28
[2]; 6 h, starting pH 4.45
  pH of about 0.48M LDEE•HCl Solution: 4.54
[2]; 6 h, starting pH 4.59
  pH of about 0.48M LDEE•HCl Solution: 4.6
[2]; 6 h, starting pH 4.6
  pH of about 0.95M LDEE•HCl Solution: 4.53
[2]; 6 h, starting pH 4.78
  pH of about 0.48M LDEE•HCl Solution: 4.71
[2]; 6 h, starting pH 4.82
  pH of about 0.95M LDEE•HCl Solution: 4.69
[2]; 6 h, starting pH 5.01
  pH of about 0.48M LDEE•HCl Solution: 4.9
  pH of about 0.95M LDEE•HCl Solution: 4.84
[2]; 6 h, starting pH 5.3
  pH of about 0.95M LDEE•HCl Solution: 5.21
[2]; 6 h, starting pH 5.31
  pH of about 0.48M LDEE•HCl Solution: 5.23
[2]; 6 h, starting pH 5.6
  pH of about 0.95M LDEE•HCl Solution: 5.53
[2]; 6 h, starting pH 5.61
  pH of about 0.48M LDEE•HCl Solution: 5.53
[2]; 24 h, starting pH 4.2
  pH of about 0.95M LDEE•HCl Solution: 3.86
[2]; 24 h, starting pH 4.4
  pH of about 0.95M LDEE•HCl Solution: 4.03
[2]; 24 h, starting pH 4.45
  pH of about 0.48M LDEE•HCl Solution: 4.19
[2]; 24 h, starting pH 4.59
  pH of about 0.48M LDEE•HCl Solution: 4.32
[2]; 24 h, starting pH 4.6
  pH of about 0.95M LDEE•HCl Solution: 4.22
[2]; 24 h, starting pH 4.78
  pH of about 0.48M LDEE•HCl Solution: 4.52
[2]; 24 h, starting pH 4.82
  pH of about 0.95M LDEE•HCl Solution: 4.36
[2]; 24 h, starting pH 5.01
  pH of about 0.48M LDEE•HCl Solution: 4.6
  pH of about 0.95M LDEE•HCl Solution: 4.58
[2]; 24 h, starting pH 5.3
  pH of about 0.95M LDEE•HCl Solution: 4.8
[2]; 24 h, starting pH 5.31
  pH of about 0.48M LDEE•HCl Solution: 4.91
[2]; 24 h, starting pH 5.6
  pH of about 0.95M LDEE•HCl Solution: 5.19
[2]; 24 h, starting pH 5.61
  pH of about 0.48M LDEE•HCl Solution: 5.23
[2]; about 2.6 M, starting pH 2.1, 23±2° C.
  pH after 24 hours: 2.0
[2]; start pH about 4.49, 24 h at 40° C.
  pH: 4.2
[2]; start pH about 4.49, 48 h at 40° C.
  pH: 4.0
[3]; 2.5 M solution at 4° C. (per Example 18)
  projected storage (shelf) life: greater than 4 years
[3]; 2.5 M solution, pH 2.3, about 4° C.
  projected shelf life: about 4.7 years
[3]; 2.5 M, pH 4.5 citrate, 29° C.-30° C.
  operational life (time to LD saturation): 4 days
[3]; 2.5 M, pH 4.5 citrate, 37° C. body temperature
  operational life, projection: about 2 days
[3]; 2.5 M, pH 4.5 citrate, about 23° C.
  operational life (time to LD saturation): about 9 days
[3]; pH 2.5±0.5, about 5±3° C.
  storage time without LD precipitation: about 3 years
[3]; pH about 1.5 to about 3.5, about 5±3° C.
  storage time without LD precipitation: more than 1 year
[3]; 2.7 M LDEE.HCl, LD saturation about 17 grams per liter
  % of the LDEE.HCl hydrolyzed at which LD saturation is reached: about 3.4%
